Test [1] concerns Aβ40 in conditioned medium of cells stably expressing Amyloid Precursor Protein (APP). The test is described as follows: In vitro BACE cell-based assay (HEK cell assay), Aβ40 sandwich ELISA. As to conditions: Homo sapiens, HEK293. The essentials: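 APP-stably expressing cells (40K/well, grown 24 h in DMEM/10% FBS) were treated 24 h with compounds in 10-point dose response starting at 100 μM or 10 μM, 0.1% DMSO final. Secreted Aβ40 was measured by sandwich ELISA (pAb40 capture, biotinylated 6E10 detection, europium time-resolved fluorescence); IC50 from percent inhibition.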
(In general: An ELISA detects its analyte on a solid surface through an enzyme-linked reagent.)

For test [2], the target named is Beta Secretase enzyme (BACE1) (Homo sapiens, UniProt P56817). As to the kind of experiment: In vitro enzymatic BACE FRET assay. It counts as biochemical. To be noted: read-out: BACE1 FRET assay IC50. An outline of the steps: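 BACE1 cleavage of a 50 nM fluorophore/quencher peptide FRET substrate ran for one hour in 0.05 M acetate pH 4.2, 10% DMSO, 100 uM genapol. Tris buffer raised pH to neutrality to stop the reaction before fluorescence was read (excitation 488 nm, […]).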
Beta Secretase enzyme (BACE1), sequence (P56817 46-501): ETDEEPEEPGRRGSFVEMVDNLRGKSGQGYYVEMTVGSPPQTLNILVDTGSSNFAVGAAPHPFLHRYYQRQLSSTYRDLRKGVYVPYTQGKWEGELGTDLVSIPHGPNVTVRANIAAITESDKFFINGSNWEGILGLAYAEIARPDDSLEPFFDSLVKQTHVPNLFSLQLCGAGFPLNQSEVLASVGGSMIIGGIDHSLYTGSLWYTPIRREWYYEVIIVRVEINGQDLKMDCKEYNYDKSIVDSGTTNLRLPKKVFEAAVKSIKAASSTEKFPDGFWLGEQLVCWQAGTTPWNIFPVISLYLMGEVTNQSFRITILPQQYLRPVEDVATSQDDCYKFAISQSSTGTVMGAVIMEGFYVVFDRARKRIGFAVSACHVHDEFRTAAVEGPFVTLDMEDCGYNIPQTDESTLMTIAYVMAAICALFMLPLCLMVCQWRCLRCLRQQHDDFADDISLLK

The target in another test is T1, Cathepsin D (Cat D) (Homo sapiens, UniProt P07339).
T1 construct: Recombinant Cat D was expressed in CHO cells; made in house; host or cells: CHO cells
T1 sequence (P07339 65-412, species assumed): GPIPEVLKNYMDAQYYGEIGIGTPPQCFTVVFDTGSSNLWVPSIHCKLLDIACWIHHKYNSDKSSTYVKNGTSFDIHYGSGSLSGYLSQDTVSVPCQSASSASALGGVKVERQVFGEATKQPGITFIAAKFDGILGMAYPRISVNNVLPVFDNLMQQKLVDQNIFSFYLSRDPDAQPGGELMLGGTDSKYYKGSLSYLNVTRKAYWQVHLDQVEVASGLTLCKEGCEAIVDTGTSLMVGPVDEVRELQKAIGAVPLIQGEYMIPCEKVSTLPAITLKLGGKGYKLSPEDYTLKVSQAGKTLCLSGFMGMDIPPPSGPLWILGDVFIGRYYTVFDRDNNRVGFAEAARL
As to the kind of experiment: In vitro enzymatic Cathepsin D (Cat D) FRET assay. It is filed as biochemical. As to conditions: read-out: CatD IC50. The essentials: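 Recombinant Cat D expressed in CHO cells, used at 9 nM and pre-incubated one hour with serially diluted inhibitor in DMSO. Peptide substrate carries a fluorophore and quencher flanking the cleavage site; reaction stopped with Tris buffer raising pH to neutrality, then fluorescence read.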

Like-named read-outs stand apart in the source and are kept apart here. Some results are limits rather than exact numbers.

By IC50 is commonly meant the concentration that gives 50% inhibition. Consider `Cc1cc(Cl)cnc1C(=O)Nc1cnc(F)c([C@]2(C)CS(=O)(=O)C3(CC3)C(N)=N2)c1` [Example 186, (R)—N-(5-(8-amino-6-methyl-4,4-dioxido-4-thia-7-azaspiro[2.5]oct-7-en-6-yl)-6-fluoropyridin-3-yl)-5-chloro-3-methylpicolinamide], for which the IC50 was 4.3 nM in test [1] (average IC50, HEK cells); 2.4 nM in test [2] (average IC50); 65700 nM on Cathepsin D (Cat D).

With `CC1(C)C(N)=N[C@](C)(c2cc(Br)ccc2F)C2(CC2)S1(=O)=O` [Example 187], the IC50 is over 15600 nM in test [1] (average IC50, HEK cells); 30700 nM in test [2] (average IC50); over 400000 nM at Cathepsin D (Cat D).

For the compound `CC1(C)C(N)=N[C@](C)(c2cc(Nc3ncc(Br)c4cc(Cl)cnc34)ccc2F)CS1(=O)=O` [Example 188, (R)-5-amino-3-(5-((5-bromo-3-chloro-1,7-naphthyridin-8-yl)amino)-2-fluorophenyl)-3,6,6-trimethyl-3,6-dihydro-2H-1,4-thiazine 1,1-dioxide], the IC50 in test [1] (average IC50, cell assay) was determined as 59.7 nM; in test [2] (average IC50, enzyme assay), 0.83 nM; at Cathepsin D (Cat D), 213000 nM.

Turning to `CC1(C)C(N)=N[C@](C)(c2cc(Nc3ncc(C#C[Si](C)(C)C)c4cc(Cl)cnc34)ccc2F)CS1(=O)=O` [Example 189, (R)-5-amino-3-(5-((3-chloro-5-((trimethylsilyl)ethynyl)-1,7-naphthyridin-8-yl)amino)-2-fluorophenyl)-3,6,6-trimethyl-3,6-dihydro-2H-1,4-thiazine 1,1-dioxide], the IC50 in test [1] (average IC50, cell assay) was 231 nM; in test [2] (average IC50, enzyme assay), 6.8 nM; at Cathepsin D (Cat D) it was over 4940 nM.

On to `C#Cc1cnc(Nc2ccc(F)c([C@]3(C)CS(=O)(=O)C(C)(C)C(N)=N3)c2)c2ncc(Cl)cc12` [Example 190, (R)-5-amino-3-(5-((3-chloro-5-ethynyl-1,7-naphthyridin-8-yl)amino)-2-fluorophenyl)-3,6,6-trimethyl-3,6-dihydro-2H-1,4-thiazine 1,1-dioxide], for which the IC50 in test [1] (average IC50, cell assay) was 44.8 nM; in test [2] (average IC50, enzyme assay), 1.3 nM; at Cathepsin D (Cat D) it was 63900 nM.

Consider `CC1(C)C(N)=N[C@](C)(c2cc(Nc3ncc(CO)c4cc(Cl)cnc34)ccc2F)CS1(=O)=O` [Example 191, (R)-5-amino-3-(5-((3-chloro-5-(hydroxymethyl)-1,7-naphthyridin-8-yl)-amino)-2-fluorophenyl)-3,6,6-trimethyl-3,6-dihydro-2H-1,4-thiazine 1,1-dioxide], for which the IC50 in test [1] (average IC50, cell assay) turned out to be 8.9 nM; in test [2] (average IC50, enzyme assay), 4.47 nM; on Cathepsin D (Cat D), 65000 nM.

For the compound `CC1(C)C(N)=N[C@](C)(c2cc(Nc3ncc(Cl)c4cc(Cl)cnc34)ccc2F)CS1(=O)=O` [Example 192, (R)-5-amino-3-(5-((3,5-dichloro-1,7-naphthyridin-8-yl)amino)-2-fluorophenyl)-3,6,6-trimethyl-3,6-dihydro-2H-1,4-thiazine 1,1-dioxide], the IC50 in test [1] (average IC50, cell assay) was found to be 36.6 nM; in test [2] (average IC50, enzyme assay), 0.7 nM; at Cathepsin D (Cat D), 32400 nM.

On to `CC1(C)C(N)=N[C@](CF)(c2cc(NC(=O)c3ccc(Cl)cn3)ccc2F)CS1(=O)=O` [Example 193, (S)—N-(3-(5-amino-3-(fluoromethyl)-6,6-dimethyl-1,1-dioxido-3,6-dihydro-2H-1,4-thiazin-3-yl)-4-fluorophenyl)-5-chloropicolinamide], for which the 50% inhibitory concentration (IC50) in test [1] (average IC50, HEK cells) turned out to be 16.1 nM; in test [2] (average IC50) it was 0.76 nM; at Cathepsin D (Cat D), 228000 nM.

As to `C=C(C)c1cc(Cl)cnc1C(=O)Nc1ccc(F)c([C@]2(C)CS(=O)(=O)C(C)(C)C(N)=N2)c1` [Example 194, (R)—N-(3-(5-amino-3,6,6-trimethyl-1,1-dioxido-3,6-dihydro-2H-1,4-thiazin-3-yl)-4-fluorophenyl)-5-chloro-3-(prop-1-en-2-yl)picolinamide], the IC50 in test [1] (average IC50, HEK cell assay) is 3.42 nM; in test [2] (average IC50, enzyme assay), 5.18 nM; on Cathepsin D (Cat D), 617000 nM.

With `C=Cc1cc(Cl)cnc1C(=O)Nc1ccc(F)c([C@]2(C)CS(=O)(=O)C(C)(C)C(N)=N2)c1` [Example 195, (R)—N-(3-(5-amino-3,6,6-trimethyl-1,1-dioxido-3,6-dihydro-2H-1,4-thiazin-3-yl)-4-fluorophenyl)-5-chloro-3-vinylpicolinamide], the IC50 in test [1] (average IC50, HEK cell assay) is 3.9 nM; in test [2] (average IC50, enzyme assay), 0.59 nM; on Cathepsin D (Cat D) it was 108000 nM.

Consider `CCc1cc(Cl)cnc1C(=O)Nc1ccc(F)c([C@]2(C)CS(=O)(=O)C(C)(C)C(N)=N2)c1` [Example 196, (R)—N-(3-(5-amino-3,6,6-trimethyl-1,1-dioxido-3,6-dihydro-2H-1,4-thiazin-3-yl)-4-fluorophenyl)-5-chloro-3-ethylpicolinamide], for which the IC50 in test [1] (average IC50, HEK cell assay) came to 5.4 nM; in test [2] (average IC50, enzyme assay) it was 1.81 nM; at Cathepsin D (Cat D) it was 200000 nM.

For `CCc1cc(Cl)cnc1C(=O)Nc1ccc(F)c([C@]2(CF)CS(=O)(=O)C(C)(C)C(N)=N2)c1` [Example 197, (S)—N-(3-(5-amino-3-(fluoromethyl)-6,6-dimethyl-1,1-dioxido-3,6-dihydro-2H-1,4-thiazin-3-yl)-4-fluorophenyl)-5-chloro-3-ethylpicolinamide], the IC50 in test [1] (average IC50, HEK cell assay) was found to be 208 nM; in test [2] (average IC50, enzyme assay) it was 1.46 nM; at Cathepsin D (Cat D), 416000 nM.

With `CC(C)c1cc(Cl)cnc1C(=O)Nc1ccc(F)c([C@]2(CF)CS(=O)(=O)C(C)(C)C(N)=N2)c1` [Example 198, (S)—N-(3-(5-amino-3-(fluoromethyl)-6,6-dimethyl-1,1-dioxido-3,6-dihydro-2H-1,4-thiazin-3-yl)-4-fluorophenyl)-5-chloro-3-isopropylpicolinamide 2,2,2-trifluoroacetate], the IC50 in test [1] (average IC50, HEK cell assay) is 91.4 nM; in test [2] (average IC50, enzyme assay) it was 7.99 nM; at Cathepsin D (Cat D), 850000 nM.

Regarding `C[C@@]1(c2cc(NC(=O)c3ccc(Cl)cn3)ccc2F)CS(=O)(=O)C2(CC2)C(N)=N1` [Example 199, N-(3-((6R)-8-amino-6-methyl-4,4-dioxido-4-thia-7-azaspiro[2.5]oct-7-en-6-yl)-4-fluorophenyl)-5-chloro-2-pyridinecarboxamide], the IC50 in test [1] (average IC50, HEK cells) was 1.1 nM; in test [2] (average IC50), 1.9 nM; at Cathepsin D (Cat D), 81000 nM.

With `C[C@]1(c2cc(NC(=O)c3ccc(Cl)cn3)ccc2F)N=C(N)C2(CC2)S(=O)(=O)[C@@H]1F` [Example 200, N-(3-((5S,6R)-8-amino-5-fluoro-6-methyl-4,4-dioxido-4-thia-7-azaspiro[2.5]oct-7-en-6-yl)-4-fluorophenyl)-5-chloro-2-pyridinecarboxamide], the IC50 in test [1] (average IC50, HEK cells) is 3.9 nM; in test [2] (average IC50) it was 1.3 nM; at Cathepsin D (Cat D), 55600 nM.

Regarding `C[C@]1(c2cc(NC(=O)c3ccc(Cl)cn3)ccc2F)N=C(N)C2(CC2)S(=O)(=O)[C@H]1F` [Example 201, N-(3-((5R,6R)-8-amino-5-fluoro-6-methyl-4,4-dioxido-4-thia-7-azaspiro[2.5]oct-7-en-6-yl)-4-fluorophenyl)-5-chloro-2-pyridinecarboxamide], the IC50 was 2 nM in test [1] (average IC50, HEK cells); 0.62 nM in test [2] (average IC50); 31100 nM on Cathepsin D (Cat D).

In the case of `Cc1cc(OC(F)F)cnc1C(=O)Nc1ccc(F)c([C@@]2(C)N=C(N)C3(CC3)S(=O)(=O)[C@@H]2F)c1` [Example 202, N-(3-((5S,6R)-8-amino-5-fluoro-6-methyl-4,4-dioxido-4-thia-7-azaspiro[2.5]oct-7-en-6-yl)-4-fluorophenyl)-5-(difluoromethoxy)-3-methyl-2-pyridinecarboxamide], the IC50 is 3.6 nM in test [1] (average IC50, HEK cells); 1.5 nM in test [2] (average IC50); 96700 nM on Cathepsin D (Cat D).

In the case of `Cc1cc(OC(F)F)cnc1C(=O)Nc1ccc(F)c([C@@]2(C)N=C(N)C3(CC3)S(=O)(=O)[C@H]2F)c1` [Example 203, N-(3-((5R,6R)-8-amino-5-fluoro-6-methyl-4,4-dioxido-4-thia-7-azaspiro[2.5]oct-7-en-6-yl)-4-fluorophenyl)-5-(difluoromethoxy)-3-methyl-2-pyridinecarboxamide], the IC50 in test [1] (average IC50, HEK cells) turned out to be 2.3 nM; in test [2] (average IC50), 0.48 nM; on Cathepsin D (Cat D), 30200 nM.

As for `Cc1cc(Cl)cnc1C(=O)Nc1ccc(F)c([C@@]2(C)N=C(N)C3(CC3)S(=O)(=O)[C@@H]2F)c1` [Example 204, N-(3-((5S,6R)-8-amino-5-fluoro-6-methyl-4,4-dioxido-4-thia-7-azaspiro[2.5]oct-7-en-6-yl)-4-fluorophenyl)-5-chloro-3-methylpicolinamide], the values for the IC50 (in test [1]; in test [2]; at Cathepsin D (Cat D)) were 2.7 nM, 0.87 nM and 182000 nM, respectively.

Consider `Cc1cc(Cl)cnc1C(=O)Nc1ccc(F)c([C@@]2(C)N=C(N)C3(CC3)S(=O)(=O)[C@H]2F)c1` [Example 205, N-(3-((5R,6R)-8-amino-5-fluoro-6-methyl-4,4-dioxido-4-thia-7-azaspiro[2.5]oct-7-en-6-yl)-4-fluorophenyl)-5-chloro-3-methylpicolinamide], for which the IC50 is 2.6 nM in test [1], 0.44 nM in test [2] and 28000 nM at Cathepsin D (Cat D).

Values taken from US20140107109A1, “AMINO-DIHYDROTHIAZINE AND AMINO-DIOXIDO DIHYDROTHIAZINE COMPOUNDS AS BETA-SECRETASE ANTAGONISTS AND METHODS OF USE” (Amgen Inc., priority 2012, published 2014).
